Experimental data reported in patent publication US12678471B2 (priority 2022, dated 2026).

Test system: ACE2-293T cells
Conditions: for Cell viability (%): 10 μM, 24 hours, ACE2-293T cells, vehicle group = 100%, mean ± SD (n = 3); for Cytotoxicity to ACE2-293T cells (result in words): dose of 10 μM

Compound	Cell viability (%)	Cytotoxicity to ACE2-293T cells (result in words)
COc1cc2c3cc1Oc1c(OC)c(OC)cc4c1[C@@H](Cc1ccc(O)c(c1)Oc1ccc(cc1)C[C@@H]3N(C)CC2)N(C)CC4 [Berbamine]	98.15 ± 3.04%	caused no harms to the ACE2-293T cells
COc1cc2c3cc1Oc1c(O)c(OC)cc4c1[C@@H](Cc1ccc(O)c(c1)Oc1ccc(cc1)C[C@@H]3N(C)CC2)N(C)CC4 [Obamegine]	98.19 ± 1.11%	caused no harms to the ACE2-293T cells
Bersavine	95.42 ± 2.33%	caused no harms to the ACE2-293T cells
